Assay [1] has as its target T1, TMEM16A (Mus musculus, UniProt Q8BHY3).
T1 construct: gene Ano1; endogenous TMEM16A in LA795 cells
T1 sequence (Q8BHY3 1-960): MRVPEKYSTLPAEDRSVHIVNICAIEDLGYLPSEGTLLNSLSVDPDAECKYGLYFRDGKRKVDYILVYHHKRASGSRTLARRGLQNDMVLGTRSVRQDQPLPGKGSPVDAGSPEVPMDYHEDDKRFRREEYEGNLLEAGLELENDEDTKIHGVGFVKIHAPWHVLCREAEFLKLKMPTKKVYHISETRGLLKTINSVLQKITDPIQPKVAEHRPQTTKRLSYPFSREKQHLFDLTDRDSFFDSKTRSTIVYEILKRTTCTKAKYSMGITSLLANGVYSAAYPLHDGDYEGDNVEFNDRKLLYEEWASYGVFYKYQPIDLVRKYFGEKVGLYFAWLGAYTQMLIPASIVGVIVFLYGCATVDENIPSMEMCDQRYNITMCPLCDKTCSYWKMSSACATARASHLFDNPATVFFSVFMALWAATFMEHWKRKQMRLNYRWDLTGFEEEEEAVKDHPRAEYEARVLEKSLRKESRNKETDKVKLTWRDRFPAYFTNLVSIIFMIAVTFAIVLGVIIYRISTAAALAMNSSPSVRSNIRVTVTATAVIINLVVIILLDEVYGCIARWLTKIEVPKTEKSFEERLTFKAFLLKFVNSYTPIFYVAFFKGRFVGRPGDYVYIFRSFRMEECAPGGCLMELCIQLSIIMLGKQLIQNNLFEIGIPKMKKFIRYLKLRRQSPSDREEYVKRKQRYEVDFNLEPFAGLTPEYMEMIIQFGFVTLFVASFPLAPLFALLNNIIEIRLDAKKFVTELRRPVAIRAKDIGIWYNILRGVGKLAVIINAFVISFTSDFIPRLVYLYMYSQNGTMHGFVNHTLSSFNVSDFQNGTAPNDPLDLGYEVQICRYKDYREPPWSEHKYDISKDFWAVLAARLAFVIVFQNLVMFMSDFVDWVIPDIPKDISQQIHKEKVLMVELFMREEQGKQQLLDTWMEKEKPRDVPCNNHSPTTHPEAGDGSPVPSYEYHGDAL
In words: whole-cell patch clamp in LA795 cells, Hill fit. Type of assay: cell-based.

Assay [2] concerns the target T2, TMEM16A (Mus musculus, UniProt Q8BHY3, K769A).
T2 construct: gene Ano1; TMEM16A mutant plasmid
T2 sequence (Q8BHY3 1-960 K769A): T1 sequence (Q8BHY3 1-960) with K769A
Description: whole-cell patch clamp of TMEM16A mutant. Type of assay: cell-based. (The patch-clamp technique gives a direct electrical read-out from membranes.)

Substitutions are numbered along the chain they refer to.

The text below walks through data of paper PMC8535866, “TMEM16A, a Homoharringtonine Receptor, as a Potential Endogenic Target for Lung Cancer Treatment” (International Journal of Molecular Sciences, 2021).

As a reminder, the IC50 is the concentration needed to halve the response being measured. Higher therefore signals weaker potency.

`COC(=O)C[C@](O)(CCCC(C)(C)O)C(=O)O[C@@H]1C(OC)=C[C@]23CCCN2CCc2cc4c(cc2[C@H]13)OCO4` [HHT, Homoharringtonine]: the half-maximal inhibitory concentration (IC50) in assay [1] turned out to be 11.4 ± 1.68 µM; in assay [2] it was 70.8 ± 24.3 µM.
